Where a name gives a salt, the structure may show the parent alone. Read-outs that look alike come from different tables or passages of the source.
How the values were obtained:
[1] = in rats; cited from earlier work
[2] = in mice; cited from earlier work
[3] = parameters: method as in PMID 21317794, PMID 21486960, PMID 16251299; settings: in humans; cited from earlier work
[4] = Body and liver weights, TAA model; format: in vivo, rat; settings: average±SD
Procedure: Using male Sprague-Dawley rats (n = 72, 10–12 weeks of age; Harlan Laboratories, USA), fibrosis was induced by IP administration of TAA at a dose of 150 mg/kg three times per week for 8 weeks. Rats (n = 4–8/group) received vehicle control, CVC 30 mg/kg/day (CVC30) or CVC100 QD PO during Weeks 0–8 (early intervention), Weeks 4–8 (established fibrosis) or Weeks 8–12 (cirrhosis reversal) and were sacrificed at Weeks 8, 8 or 12, respectively (S1 Table). Study endpoints included: body and liver weights, liver biochemistry (e.g. serum alanine and aspartate aminotransferase [ALT/AST]), extracellular matrix protein expression in liver tissue (collagen type 1 and alpha-SMA), mRNA expression (collagen type 1, alpha-SMA, beta-platelet-derived growth factor-beta receptor, TGF beta-receptor, matrix metalloproteinase 2, tissue inhibitor of metalloproteinases 1 [TIMP1] and 2 [TIMP2]) and liver morphology. For liver-function testing, plasma samples were obtained from blood collected from the vena cava. Livers were sectioned and fixed in 3.7% formalin, embedded in paraffin, cut at […] thickness and stained with hematoxylin and eosin (H&E) for histological examination.
(§1) Body weight (measured before and during treatment) and sacrificed animal body and liver/kidney/spleen weights were recorded.

[5] = CVC plasma levels in the UUO model (LC/MS/MS); format: in vivo; settings: n = 8, ~4 hours post-dose (approximate Cmax), Day 5
Procedure: Male CD-1 mice (n = 51; 7–8 weeks of age; Charles River Laboratories, USA) were allocated to weight-matched treatment groups on Day -1 (1 day prior to either sham [one group] or permanent right UUO surgery [five groups] via aseptic laparotomy). From Days -1 to 4, mice received phosphate-buffered saline (PBS) IP QD, apart from a positive-control group, which received 1D11 (anti-TGF-beta1 antibody) 3 mg/kg IP QD. From Days 0 to 5, mice received vehicle control (sham surgery, UUO-control and UUO+positive-control groups) or CVC 7 mg/kg/day (CVC7), CVC20 or CVC100 PO BID (S1 Table). The CVC100 group was terminated due to poor clinical condition (6/9 animals died and 3/9 euthanized prior to end of study). Of note, a similar dose of CVC100 administered for 3 weeks was well tolerated in the mouse NASH model; therefore, it is plausible that the laparotomy and UUO surgery in combination with CVC may have contributed to the loss of animals. […]
CVC plasma levels (minimum and maximum) were determined by KCAS Bioanalytical Services, USA, using a validated liquid chromatography-tandem mass spectrometry (LC/MS/MS) plasma method (50 μL assay, range 10.0−1920.0 ng/mL).

[6] = Body and liver weights, NASH model; format: in vivo, mouse; settings: mean±SD
Procedure: NASH was induced in male C57BL/6 mice (Charles River Laboratories, Japan) via subcutaneous injection of 200 μg of streptozotocin 2 days post-birth (causing mild islet inflammation and islet destruction) plus a high-fat diet (57 kcal% fat) from 4 weeks of age (sequentially causing fatty changes to the liver, NASH and fibrosis). From Weeks 6 to 9, three groups (n = 9/group) received vehicle control, CVC20 or CVC100 BID PO (S1 Table). At Week 9, six animals per group were sacrificed for assessment of liver fibrosis and Non-Alcoholic Fatty Liver Disease (NAFLD) Activity Score (NAS). The animals were sacrificed by exsanguination through direct cardiac puncture under ether anesthesia. Study endpoints included: body and liver weights, plasma biochemistry (e.g. ALT and CCL2), extracellular matrix protein in liver tissue (hydroxyproline content), mRNA expression (collagen type 1, tumor necrosis factor-alpha, MCP-1, TIMP1) and histopathological analyses. Blood samples were collected and plasma samples derived for biochemistry assessments. Sections were cut from paraffin blocks of liver tissue, prefixed in Bouin’s solution and stained with H&E for histological examination.
as §1

[7] = Body and kidney weights and clinical condition, UUO model; format: in vivo; settings: for Contralateral kidney weight / Final body weight / Obstructed kidney weight: UUO model, average±SEM
Procedure: Male CD-1 mice (n = 51; 7–8 weeks of age; Charles River Laboratories, USA) were allocated to weight-matched treatment groups on Day -1 (1 day prior to either sham [one group] or permanent right UUO surgery [five groups] via aseptic laparotomy). From Days -1 to 4, mice received phosphate-buffered saline (PBS) IP QD, apart from a positive-control group, which received 1D11 (anti-TGF-beta1 antibody) 3 mg/kg IP QD. From Days 0 to 5, mice received vehicle control (sham surgery, UUO-control and UUO+positive-control groups) or CVC 7 mg/kg/day (CVC7), CVC20 or CVC100 PO BID (S1 Table). […] Study endpoints included: body and kidney weights, mRNA expression (TGF-beta, connective tissue growth factor, MCP-1, alpha-SMA, collagen 1a1, fibronectin-1 and collagen 3a1), extracellular matrix protein in renal cortical tissue (hydroxyproline content) and histological analyses. Blood and tissue samples were collected from anesthetized mice 4 hours post-dose on Day 5, prior to sacrifice. A mid-transverse section of the right obstructed kidney was collected for histological analysis.
as §1

[8] = cirrhosis reversal, CVC 30 mg/kg/day
[9] = cirrhosis reversal, CVC 100 mg/kg/day
[10] = early intervention, CVC 30 mg/kg/day
[11] = early intervention, CVC 100 mg/kg/day
[12] = established fibrosis, CVC 30 mg/kg/day
[13] = established fibrosis, CVC 100 mg/kg/day
[14] = CVC100 PO BID, UUO surgery, group terminated due to poor clinical condition

CCCCOCCOc1ccc(-c2ccc3c(c2)/C=C(/C(=O)Nc2ccc([S@@+]([O-])Cc4cncn4CCC)cc2)CCCN3CC(C)C)cc1 [CVC, cenicriviroc mesylate]
Half-life [1]: 4 to 5 h
Half-life [2]: ~ 2 hours
Plasma half-life [3]: 30 to 40 h
Final body weight [4, 8]: 390.3 ± 9.3 g
Liver weight [4, 8]: 19 ± 0.7 g
Liver-to-body weight ratio [4, 8]: 4.9±0.2%
Final body weight [4, 9]: 386.4 ± 4.9 g
Liver weight [4, 9]: 18.5 ± 0.7 g
Liver-to-body weight ratio [4, 9]: 4.8±0.2%
Final body weight [4, 10]: 330.9 ± 6.4 g
Liver weight [4, 10]: 17.9 ± 1.6 g
Liver-to-body weight ratio [4, 10]: 5.4±0.5%
Final body weight [4, 11]: 347.2 ± 6.9 g
Liver weight [4, 11]: 17.5 ± 0.5 g
Liver-to-body weight ratio [4, 11]: 5.0±0.1%
Final body weight [4, 12]: 342.0 ± 7.7 g
Liver weight [4, 12]: 15.6 ± 0.6 g
Liver-to-body weight ratio ([4]; established fibrosis, CVC 30 mg/kg/day, p < 0.05 vs vehicle control): 4.6±0.1 %
Final body weight [4, 13]: 327.3 ± 7.8 g
Liver weight [4, 13]: 15.8 ± 0.9 g
Liver-to-body weight ratio [4, 13]: 4.8±0.2%
CVC concentration (mean±SD), plasma ([5]; CVC7 BID): 251 ± 364 ng/mL
CVC concentration (mean±SD), plasma ([5]; CVC20 BID): 971 ± 507 ng/mL
Final body weight ([6]; CVC 20 mg/kg/day): 19.5 ± 2.0 g
Liver weight ([6]; CVC 20 mg/kg/day): 1334 ± 99 mg
Liver-to-body weight ratio ([6]; CVC 20 mg/kg/day): 6.9±1.0%
Final body weight ([6]; CVC 100 mg/kg/day): 18.7 ± 0.9 g
Liver weight ([6]; CVC 100 mg/kg/day): 1307 ± 119 mg
Liver-to-body weight ratio ([6]; CVC 100 mg/kg/day): 7.0±0.8%
Decrease in body weight vs UUO control ([7]; CVC20, Day 5, p < 0.05): 5%
Animals died prior to end of study [7, 14]: 6/9
Animals euthanized prior to end of study [7, 14]: 3/9
Contralateral kidney weight ([7]; CVC 7 mg/kg/day): 221.0 ± 10.1 mg
Final body weight ([7]; CVC 7 mg/kg/day): 26.3 ± 0.5 g
Obstructed kidney weight ([7]; CVC 7 mg/kg/day): 232.0 ± 11.9 mg
Contralateral kidney weight ([7]; CVC 20 mg/kg/day): 202.4 ± 6.1 mg
Final body weight ([7]; CVC 20 mg/kg/day): 25.7 ± 0.4 g
Obstructed kidney weight ([7]; CVC 20 mg/kg/day): 217.0 ± 6.7 mg

From article PMC4922569, “Antifibrotic Effects of the Dual CCR2/CCR5 Antagonist Cenicriviroc in Animal Models of Liver and Kidney Fibrosis” (PLoS ONE, 2016)
